Measurements published in US5428058A, “Phospholipase A2 inhibitors” (American Home Products Corporation, priority 1994, dated 1995).
Several values for one entry are separate records, joined by “and”; a condition that tells them apart may be missing. Equal entries are not always repeated.

Key:
[1] = system: tetradecanoylphorbol acetate (TPA) induced ear edema; assay: tetradecanoylphorbol acetate (TPA) induced ear edema in mice; assay type: in vivo, mouse (Webster); set-up: activity in TPA ear edema test: dose or concentration left out as unconfirmed; details: for Percent Inhibition TPA Ear Edema: 30 min after TPA, measured 4 hrs after TPA
Description: Representative compounds of this invention were evaluated in an in vivo standard pharmacological test procedure that measured the effect of the representative compounds on dermal inflammation, as measured by the prevention of tetradecanoylphorbol acetate (TPA) induced car edema in Webster mice. This test procedure was carried out as follows.
Mice were placed into plastic boxes in groups of six. Eight groups of mice received TPA topically on the right ear. TPA was dissolved in acetone at a concentration of 100 ug/ml. TPA was applied to the right ear by the means of an automatic pipette. Volumes of 10 ul were applied to the inner and outer surfaces of the ear. Each mouse received 2 ug/ear TPA. The left ear (control) received acetone delivered in the same manner. The compounds to be evaluated were given orally 30 min after treatment with TPA.
Measurements were taken with Oditest calipers, 0-10 mm with 0.01 graduations. The right and left cars were measured 4 hrs after TPA-induced inflammation.
The difference between right and left car thickness was calculated and the significance was determined by a one way analysis of variance with Dunnet's comparisons to control (P=0.05). Drug effects are expressed as a percent change from control values according to the following formula. [formula]

5-lipoxygenase = biological target: T1, 5-lipoxygenase (Mus musculus, UniProt P48999); assay: 5-lipoxygenase inhibition (LTC4 production) in resident murine peritoneal macrophages; assay type: cell-based, mouse (Swiss Webster)
T1 construct: Resident peritoneal macrophages were collected from female Swiss Webster mice; endogenous in cells; host or cells: resident peritoneal macrophages of female Swiss Webster mice
T1 sequence (P48999 1-674): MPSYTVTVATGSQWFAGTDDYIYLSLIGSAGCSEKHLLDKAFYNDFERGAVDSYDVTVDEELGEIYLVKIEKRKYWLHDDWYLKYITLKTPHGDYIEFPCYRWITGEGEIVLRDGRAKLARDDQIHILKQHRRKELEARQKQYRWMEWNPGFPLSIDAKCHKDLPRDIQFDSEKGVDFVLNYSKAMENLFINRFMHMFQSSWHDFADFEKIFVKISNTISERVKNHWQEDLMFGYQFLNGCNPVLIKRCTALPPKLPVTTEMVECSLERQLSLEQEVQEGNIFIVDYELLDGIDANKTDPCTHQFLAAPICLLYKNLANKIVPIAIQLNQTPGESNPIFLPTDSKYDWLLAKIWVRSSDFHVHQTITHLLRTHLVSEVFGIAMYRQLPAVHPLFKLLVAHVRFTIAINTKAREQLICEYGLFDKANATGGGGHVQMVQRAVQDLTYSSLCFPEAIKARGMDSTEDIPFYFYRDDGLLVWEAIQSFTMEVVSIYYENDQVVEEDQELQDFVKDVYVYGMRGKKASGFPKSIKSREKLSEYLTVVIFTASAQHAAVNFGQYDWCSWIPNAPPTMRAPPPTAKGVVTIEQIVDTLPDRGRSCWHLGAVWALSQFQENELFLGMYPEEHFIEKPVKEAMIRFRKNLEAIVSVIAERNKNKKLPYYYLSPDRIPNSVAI
Description: (§1) The ability of the compounds of the invention to act as inhibitors of the enzymes 5-lipoxygenase and cyclooxygenase was evaluated in the resident murine peritoneal macrophage standard pharmacological test procedure. This test procedure was carried out as follows.
(§2) Resident peritoneal macrophages were collected from female Swiss Webster mice (49 days old, 20-25 gms, Buckshire) by lavaging with 7-8 ml Hanks Balanced Salt Solution (HBSS) without Ca^++ and Mg^++ (GIBCO). The lavage fluid from several mice was pooled and centrifuged at 4° C. for 10 minutes at 400 xg. The cell pellet was resuspended in Medium 199 (GIBCO) with HEPES buffer containing 100 μg/ml gentamicin. Two ml of the cell suspension (4×10^6 cells) were then plated on 35 mm culture dishes (Nunc).
A macrophage monolayer was established after a 1-1.5 hour incubation of the cells at 37° C. in an atmosphere of […] and 5% CO2. The monolayers were washed 2× with 2 ml HBDSS, containing Ca^++ and Mg^++ after which 2 ml Medium 199 supplemented with 10% freshly thawed heat-inactivated fetal bovine serum and 100 μg/ml gentamicin was added for an overnight incubation.
Residual serum and cellular debris were removed from the monolayers by washing 3× with 2 ml HBSS containing Ca^++ and Mg^++. Macrophages were preincubated for 5 minutes with 1 ml serum-free M199 containing 10 μl dimethyl sulfoxide (DMSO) vehicle or test compound prior to cell activation with zymosan ([…]) or arachidonic acid (AA) (2 μM). After 2 hours, the supernatants were removed and either assayed for LTC4 and PGE2 by radioimmunoassay (RIA) directly or stored at -20° C. In all cases, results are expressed as ng metabolite/4×10^6 cells.
Calculations: The raw data were converted to ng metabolite/4-10^6 cells using a standard curve. Results were then expressed as percent inhibition of zymosan induced, leukotriene or prostaglandin synthesis (control) using the following equation: [formula] REFERENCE COMPOUNDS: The compounds used are listed below.

cyclooxygenase = cyclooxygenase inhibition (PGE2 production) in resident murine peritoneal macrophages; assay type: cell-based, mouse (Swiss Webster); details: dose 0.5 μM; mouse macrophages, zymosan induced
Description: as §1, §2
A macrophage monolayer was established after a 1-1.5 hour incubation of the cells at 37° C. in an atmosphere of […] and 5% CO2. […]
Residual serum and cellular debris were removed from the monolayers by washing 3× with 2 ml HBSS containing Ca^++ and Mg^++. […] In all cases, results are expressed as ng metabolite/4×10^6 cells.
Calculations: The raw data were converted to ng metabolite/4-10^6 cells using a standard curve. Results were then expressed as percent inhibition of zymosan induced, leukotriene or prostaglandin synthesis (control) using the following equation: [formula] […]

[2] = mouse macrophages, zymosan induced
[3] = dose 0.1 μM, mouse macrophages, zymosan induced

Structure (SMILES)	inhibition at 0.5 µM (5-lipoxygenase; [2]) [%]	PGE2 % Inhibition (cyclooxygenase)	Percent Inhibition TPA Ear Edema ([1]; 80 mg/kg p.o.) [%]	Percent Inhibition TPA Ear Edema ([1]; 160 mg/kg p.o.) [%]	further results
COc1ccc2c(c1)c(CC(=O)O)c(C)n2C(=O)c1ccc(Cl)cc1 [Indomethacin, reference compound]	–	–	–	–	activity in TPA ear edema test [1]: inactive
NC1=NN(c2cccc(C(F)(F)F)c2)CC1 [BW 755c, reference compound]	–	–	–	–	ED50 ([1]; Mus musculus, 4 h, oral, TPA-induced ear edema, mice): 88 mg/kg
CCCCCC#CCC#CCC#CCC#CCCCC(=O)O [ETYA, reference compound]	–	–	–	–	IC50 (5-lipoxygenase): 440 nM

The next lines start with results.

inhibition at 0.5 µM (5-lipoxygenase; [2]) [%]	Structure (SMILES)	PGE2 % Inhibition (cyclooxygenase)	Percent Inhibition TPA Ear Edema ([1]; 80 mg/kg p.o.) [%]	Percent Inhibition TPA Ear Edema ([1]; 160 mg/kg p.o.) [%]	further results
59	O=C(CC[C@@H]1CC[C@H]2CCCC[C@@H]2C1)C1=C(O)COC1=O (relative stereo) [Example 1, 3-[3-[(2α,4aα,8aβ)-Decahydro-naphthalene-2-yl]-propionyl]-4-hydroxy-2-(5H) -furanone]	54%	19	49	–
92	O=C(CC[C@@H]1CC[C@H]2CCCC[C@@H]2C1)C1=C(O)CSC1=O (relative stereo) [Example 2, 3-[3-[(2α,4aα,8aβ)-Decahydro-naphthalene-2-yl]-propionyl]-4-hydroxy-2-(5H)thiophenone]	80% and 85%	21	66	LTC4 % Inhibition (5-lipoxygenase; [3]): 37%; inhibition at 0.1 µM (5-lipoxygenase; [3]): 43%
